Assays:
creeping bentgrass = assay: Turf quality rating of creeping bentgrass fairways with dollar spot, field plots (scale 1-9); assay type: in vivo, creeping bentgrass (Agrostis stolonifera); details: Plot 2, Metconazole 0.14 oz ai/1000 sq ft
Excerpt: (§1) In order to determine the efficacy of combinations of metconazole and Myrothecium verucaria fermentation solids and solubles, numerous treatments were applied to plots in an area of turf grass. Specifically, the plots had established creeping bentgrass growing. No weed infestation was observed. Each plot was 30 square feet and the treatments were done in four replications. A randomized control was included in each block. The plots were no-till golf fairways. The treatments were applied during times of heat stress and also during times when no heat stress was present. The treatment solutions were prepared by pouring the liquid and dispersible granules in water and mixing. Treatments were applied to the turf grass at a volume of 2 gallons (256 liquid ounces)/1000 ft^2 with a CO2 backpack sprayer at 34 psi with a ground speed of 1 mph. The plots received six applications on 22 May, 6 June, 19 June, 4 July, 17 July, and 14 August. The turf grass was evaluated approximately every 7 days. Effect of Metconazole and Myrothecium verucaria fermentation solids and solubles on Dollar Spot on Creeping Bentgrass Fairways (% Damage)” and “Table 2. Effect of Metconazole and Myrothecium verucaria fermentation solids and solubles on Dollar Spot on Creeping Bentgrass Fairways (Quality Rating Based on a Scale of 1-9)”.

[1] = system: Dollar spot (Sclerotinia homoeocarpa); assay: Dollar spot on creeping bentgrass fairways, field plots (% damage); assay type: in vivo; details: Plot 2, Metconazole 0.14 oz ai/1000 sq ft
Excerpt: as §1

`CC1(C)CCC(Cc2ccc(Cl)cc2)C1(O)Cn1cncn1` (centres unmarked) [Metconazole, 5-[(4-chlorophenyl)methyl]-2,2-dimetyl-1-(1 H-1,2,4-triazol-1-ylmethyl)cyclopentanol] was tested, and the “Quality Rating Based on a Scale of 1-9” value (creeping bentgrass; 3 July) was 4.5, the “Quality Rating Based on a Scale of 1-9” value (creeping bentgrass; 7 Aug) was 4.8 and the “Quality Rating Based on a Scale of 1-9” value (creeping bentgrass; 10 July) was 3.8. For the same molecule, the “Quality Rating Based on a Scale of 1-9” value (creeping bentgrass; 14 Aug) was 4.0, the “Quality Rating Based on a Scale of 1-9” value (creeping bentgrass; 15 June) was 6.0 and the “Quality Rating Based on a Scale of 1-9” value (creeping bentgrass; 17 July) was 3.5. For the same molecule, the “Quality Rating Based on a Scale of 1-9” value (creeping bentgrass; 21 Aug) was 4.3, the “Quality Rating Based on a Scale of 1-9” value (creeping bentgrass; 22 June) was 5.5 and the “Quality Rating Based on a Scale of 1-9” value (creeping bentgrass; 25 July) was 4.8. For the same molecule, the “Quality Rating Based on a Scale of 1-9” value (creeping bentgrass; 26 June) was 5.5, the “Quality Rating Based on a Scale of 1-9” value (creeping bentgrass; 31 July) was 4.8 and the “Dollar Spot % Damage” value ([1]; 3 July) was 16.3%. The “Dollar Spot % Damage” value ([1]; 6 June) was 8.8%, the “Dollar Spot % Damage” value ([1]; 7 Aug) was 36.3% and the “Dollar Spot % Damage” value ([1]; 10 July) was 32.5%. The “Dollar Spot % Damage” value ([1]; 14 Aug) was 55.0%, the “Dollar Spot % Damage” value ([1]; 15 June) was 7.5% and the “Dollar Spot % Damage” value ([1]; 17 July) was 36.3%. The “Dollar Spot % Damage” value ([1]; 21 Aug) was 37.5%, the “Dollar Spot % Damage” value ([1]; 22 June) was 10.0% and the “Dollar Spot % Damage” value ([1]; 25 July) was 24.3%. For the same molecule, the “Dollar Spot % Damage” value ([1]; 26 June) was 11.3% and the “Dollar Spot % Damage” value ([1]; 31 July) was 31.3%.
